Source: PMC4830539, “Chemical Inhibition of Histone Deacetylases 1 and 2 Induces Fetal Hemoglobin through Activation of GATA2” (PLoS ONE, 2016)

Assays:
HbF protein = HbF protein by flow cytometry in BM cells (CS1, CS2); format: cell-based, human; settings: for HbF positive cells / MFI of HbF positive cells: 1 μM ACY-957 or 30 μM hydroxyurea
Experimental: CD34+ cells isolated from human bone marrow of healthy normal donors (Lonza, AllCells, or StemCell Technologies), referred to as BM cells throughout this work, were cultured using two distinct 2-phase culture systems. These systems have been described previously and are referred to as Culture System 1 (CS1) and Culture System 2 (CS2) throughout this work. CS1 expansion media is StemSpan SFEM (StemCell Technologies) supplemented with CC100 (StemCell Technologies), 100 U/mL penicillin and 100 μg/mL streptomycin. CC100 is a mix of Flt-3 ligand (FLT3LG), KIT ligand (KITLG), interleukin-3 (IL3), and interleukin-6 (IL6). CS1 differentiation media is StemSpan SFEM supplemented with 1 U/ml erythropoietin (EPO), 5 ng/mL IL3, 20 ng/mL KITLG, 2 μM dexamethasone, 1 μM beta-estradiol, 100 U/mL penicillin and 100 μg/mL streptomycin. CS2 expansion media is StemSpan SFEM supplemented with 1% glutamine, 40 μg/mL lipids (Sigma), 100 ng/mL KITLG, 10 ng/mL IL3, and 0.5 U/mL EPO. CS2 differentiation media is same as CS2 expansion media, except 3 U/mL EPO.
Flow cytometry was performed on a FC500 flow cytometer ([…]). Fetal hemoglobin protein was assayed using the Fetal Hemoglobin Test Kit (Life Technologies) according to manufacturer’s protocol. Samples were stained with FITC-conjugated mouse IgG1 anti-human HbF antibody (clone HbF-1, Life Technologies). Each sample was also stained with a FITC-conjugated mouse IgG1 isotype control antibody (clone X40, BD Biosciences) and used as a negative control. FETALtrol cells were used as positive controls (Trillium Diagnostics). TFRC and GYPA were detected on fresh cells by staining with 20 μL of PE-conjugated anti-human TFRC (clone M-A712, catalog 555537, BD Biosciences) and 0.5 μL of FITC- or APC-conjugated anti-human GYPA (clone GA-R2 (HIR2), catalog 559943 or 551336, BD Biosciences) in 200 μL PBS with 0.1% BSA for 40 min on ice. Forward and side scatter, or staining with 7AAD (catalog 559925, BD Biosciences), was used to identify viable cells.
To determine if the HBG mRNA induction observed in the presence of ACY-957 was associated with an increase in the HbF protein, CS1 and CS2 cells at day 5 were stained with a fluorescently conjugated anti-HbF antibody and evaluated by flow cytometry. HbF positive cells were increased by 2 to 3-fold upon treatment with ACY-957, which exceeded the response observed with hydroxyurea (Fig 2B and 2E).

GATA2 binding = assay: GATA2 ChIP-Seq in erythroid progenitors; format: cell-based, human; settings: 1 μM
Experimental: Cells were fixed in 1% formaldehyde for 15 minutes at room temperature. Crosslinking reaction was extinguished by adding glycine to 125 mM. Cells were washed three times in PBS, 0.5% lgepal CA-630, 1 mM phenylmethanesulfonyl fluoride (PMSF). Cell pellets were snap frozen on dry ice and stored at -80°C.
ChIP-Seq was performed by Active Motif (Carlsbad, CA). Chromatin (30 μg) from vehicle (n = 1) or ACY-957 (n = 1) treated cells was immunoprecipitated (n = 1, each) with antibodies against GATA2 (20 μL, sc-9008, Santa Cruz Biotechnology), HDAC1 (20 μg, ab7028, Abcam), or HDAC2 (4 μg, ab12169, Abcam). ChIP DNA, as well as a control sample composed of equal amounts of input DNA from each treatment group, was processed into Illumina libraries using standard procedures, and libraries were sequenced on HiSeq 2000. The 50-nt sequence reads were mapped to the human genome, build Hg19, using the BWA algorithm with default settings. For the analysis, all data files were normalized to the same number of unique alignments without duplicate reads (24 million). Sequence tags were extended in silico (using Active Motif software) at their 3′-ends to a length of 150 bp. To identify the density of fragments (extended tags) along the genome, the genome was divided into 32-nt bins and the number of fragments in each bin was determined. The resulting histogram files (bigwig format) are presented in figures using the Santa Cruz Genome Browser. Visualizations were exported as an eps file and formatted using Adobe Illustrator. Regions of GATA2 enrichment (intervals) were determined using MACS peak calling software, which identifies enrichments in the ACY-957 or vehicle treated ChIP data file when compared to the input DNA data file (random background). To compare peak metrics between vehicle and ACY-957 treated samples, overlapping intervals are grouped into active regions, which are defined by the start coordinate of the most upstream interval and the end coordinate of the most downstream interval. In locations where only one sample has an interval, this interval defines the active region. […]

Nc1ccc(-c2cccs2)cc1NC(=O)c1ccc2nc(N3CCNCC3)ccc2c1 [ACY-957]
HbF positive cells (HbF protein; CS1, day 5): 36%
MFI of HbF positive cells (HbF protein; CS1, day 5): 36
increase of HbF positive cells (HbF protein; CS1 and CS2, day 5, 1 μM): 2 to 3 fold
increase of mean fluorescent intensity (MFI) of HbF positive cells (HbF protein; CS1 and CS2, day 5, 1 μM): up to 2 fold
HbF positive cells (HbF protein; CS2, day 5): 50%
MFI of HbF positive cells (HbF protein; CS2, day 5): 20
maximum increase in GATA2 binding peak height (GATA2 binding; -1.8 kb GATA2 regulatory region): 3 fold
GATA2 binding at the other 5 regions of the β-like globin gene cluster (GATA2 binding; ChIP-Seq): not affected
increase in GATA2 binding at the HBD promoter region (GATA2 binding; ChIP-Seq): 1.8 fold
